Measured values: PubChem BioAssay (NCI)
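Interpolation was linear, between the two tested concentrations surrounding the appropriate level; five concentrations were tested over 48 hours in 96-well plates. Abbreviation: GI50, concentration required for 50% inhibition of growth. TGI denotes the concentration required for complete inhibition of growth.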

Experiments:
Assay in all cases: NCI anticancer screen, dose series, 48 h
[1] = test system: MDA-MB-468 breast
[2] = test system: EKVX NSCLC
[3] = test system: HOP-62 NSCLC
[4] = test system: SF-295 CNS
[5] = test system: NCI-H460 lung
[6] = test system: SR leukemia
[7] = test system: TK-10 renal
[8] = test system: M14 melanoma
[9] = test system: SK-MEL-28 melanoma
[10] = test system: MDA-MB-435
[11] = test system: T-47D breast
[12] = test system: MCF7 breast
[13] = test system: OVCAR-8 ovarian
[14] = test system: HCT-116 colon
[15] = test system: SN12C renal
[16] = test system: NCI-H23 lung
[17] = test system: COLO 205 colon
[18] = test system: CCRF-CEM leukemia
[19] = test system: K-562 leukemia
[20] = test system: KM12 colon
[21] = test system: UACC-257 melanoma
[22] = test system: MALME-3M melanoma
[23] = test system: LOX IMVI melanoma
[24] = test system: ACHN renal
[25] = test system: RXF 393 renal
[26] = test system: HCT-15 colon
[27] = test system: IGROV1 ovarian
[28] = test system: SF-268 CNS
[29] = test system: SF-539 CNS
[30] = test system: HL-60(TB) leukemia
[31] = test system: SK-OV-3 ovarian
[32] = test system: 786-0 renal
[33] = test system: HT29 colon
[34] = test system: SW-620 colon
[35] = test system: SNB-19 CNS
[36] = test system: NCI/ADR-RES ovarian
[37] = test system: HCC-2998 colon
[38] = test system: UO-31 renal
[39] = test system: A549 NSCLC
[40] = test system: RPMI-8226 leukemia
[41] = test system: NCI-H522 lung
[42] = test system: CAKI-1 renal
[43] = test system: MOLT-4 leukemia
[44] = test system: NCI-H226 lung
[45] = test system: DU-145 prostate
[46] = test system: A498 renal
[47] = test system: PC-3 prostate
[48] = test system: SNB-75 CNS
[49] = test system: HOP-92 NSCLC
[50] = test system: SK-MEL-5 melanoma
[51] = test system: OVCAR-5 ovarian
[52] = test system: BT-549 breast
[53] = test system: MDA-MB-231 breast
[54] = test system: HS 578T breast
[55] = test system: OVCAR-4 ovarian
[56] = test system: UACC-62 melanoma
[57] = test system: OVCAR-3 ovarian
[58] = test system: SK-MEL-2 melanoma
[59] = test system: U251 CNS

## Fc1ccc(N2CC(Cn3c(C(F)(F)F)cc4c(Cl)ncnc43)C2)c(F)c1
[1]
  GI50: 1.63 µM
  TGI: 3.2 µM
[2]
  GI50: 6.54 µM
  TGI: 19.8 µM
[3]
  GI50: 17.1 µM
  TGI: 33.8 µM
[4]
  GI50: 11.5 µM
  TGI: 24.5 µM
[5]
  GI50: 3.99 µM
  TGI: 14.3 µM
[6]
  GI50: 2.14 µM
  TGI: 6.92 µM
[7]
  GI50: 19.3 µM
  TGI: 50.7 µM
[8]
  GI50: 2.98 µM
  TGI: 10.7 µM
[9]
  GI50: 2.08 µM
  TGI: 4.91 µM
[10]
  GI50: 4.95 µM
  TGI: 17.6 µM
[11]
  GI50: 13.9 µM
  TGI: 66.8 µM
[12]
  GI50: 8.16 µM
  TGI: 23.6 µM
[13]
  GI50: 2.15 µM
  TGI: 5.07 µM
[14]
  GI50: 1.92 µM
  TGI: 3.93 µM
[15]
  GI50: 1.95 µM
  TGI: 4.97 µM
[16]
  GI50: 2.65 µM
  TGI: 8.34 µM
[17]
  GI50: 15.1 µM
  TGI: 32.5 µM
[18]
  GI50: 10.4 µM
  TGI: > 100 µM
[19]
  GI50: 2.34 µM
  TGI: 7.13 µM
[20]
  GI50: 16.1 µM
  TGI: 31.2 µM
[21]
  GI50: 3.1 µM
  TGI: 12 µM
[22]
  GI50: 12.6 µM
  TGI: 25.2 µM
[23]
  GI50: 1.63 µM
  TGI: 2.99 µM
[24]
  GI50: 12.9 µM
  TGI: 27.5 µM
[25]
  GI50: 2.07 µM
  TGI: 4.99 µM
[26]
  GI50: 1.79 µM
  TGI: 3.55 µM
[27]
  GI50: 1.85 µM
  TGI: 3.54 µM
[28]
  GI50: 3.14 µM
  TGI: 11.2 µM
[29]
  GI50: 13.7 µM
  TGI: 28.3 µM
[30]
  GI50: 2.26 µM
  TGI: 6.38 µM
[31]
  GI50: 14.6 µM
  TGI: 29.6 µM
[32]
  GI50: 14.9 µM
  TGI: 29.1 µM
[33]
  GI50: 3.44 µM
  TGI: 16.3 µM
[34]
  GI50: 1.89 µM
  TGI: 3.85 µM
[35]
  GI50: 15.1 µM
  TGI: 28.9 µM
[36]
  GI50: 10.2 µM
  TGI: 26.5 µM
[37]
  GI50: 1.96 µM
  TGI: 3.48 µM
[38]
  GI50: 2.68 µM
  TGI: 10.8 µM
[39]
  GI50: 17.3 µM
  TGI: 35.7 µM
[40]
  GI50: 23.4 µM
  TGI: 64.9 µM
[41]
  GI50: 1.82 µM
  TGI: 3.97 µM
[42]
  GI50: 11.8 µM
  TGI: 24.2 µM
[43]
  GI50: 3.12 µM
  TGI: 8.97 µM
[44]
  GI50: 14 µM
  TGI: 31 µM
[45]
  GI50: 12.6 µM
  TGI: 25.8 µM
[46]
  GI50: 23.3 µM
  TGI: 74.2 µM
[47]
  GI50: 3.07 µM
  TGI: 10.9 µM
[48]
  GI50: 12.1 µM
  TGI: 24.8 µM
[49]
  GI50: 11 µM
  TGI: 25.4 µM
[50]
  GI50: 10.9 µM
  TGI: 22.9 µM
[51]
  GI50: 17.8 µM
  TGI: 37.3 µM
[52]
  GI50: 10.7 µM
  TGI: 22.9 µM
[53]
  GI50: 1.63 µM
  TGI: 3.09 µM
[54]
  GI50: 7.06 µM
  TGI: 41.8 µM
[55]
  GI50: 12.9 µM
  TGI: 27 µM
[56]
  GI50: 3.16 µM
  TGI: 13 µM
[57]
  GI50: 2.55 µM
  TGI: 6.42 µM
[58]
  GI50: 15.9 µM
  TGI: 31.2 µM
[59]
  GI50: 1.91 µM
  TGI: 3.83 µM
